# Laboratory results from patent US5434053A, “Detection of antibiotics” (Gist-Brocades N.V., priority 1992, dated 1995).
# Tests used:
# [1] = tested on: antibiotic binding protein; assay: Antibiotic residue test for β-lactams in milk (sequential assay; HRPO-labelled antibiotic binding protein, immobilized 7ACA-spacer-BSA); parameters: species or system Bacillus stearothermophilus; conditions: for sensitivity ppb: test according to Example 1, other β-lactams; for reader units expressed in %: measured at 650 nanometer
# Experimental: A grown culture of an antibiotic sensitive microorganism in this example Bacillus stearothermophilus (continuous culture art. #108 Porton Products Ltd, UK) was lysed overnight at 4° C. with lysozyme, DNAse and triton X-100 in 0.1M phosphate pH 7.0. The lysate was centrifuged for 30 minutes at approximately 1600×g (4° C.). After centrifugation the supernatant was mixed with an antibiotic affinity gel matrix, for example to prepare a 7-aminocephalosporanic acid (7ACA) affinity gel matrix the following method was used.
# The 7ACA-affigel and the supernatant of the lysed culture was mixed for 3 hours at 20° C. gently on a shaker. The gel was washed six times with 0.1M phosphate+1M NaCl pH 7.0. For each wash was used 500 ml.
# In this example horse-radish peroxidase (HRPO) is used. 1 mg HRPO (suitable for labelling) in 1 ml of distilled water (d.i.-water) and 0.2 ml 0.1M Na-periodate was mixed 20 minutes at 20° C. and dialysed overnight at 4° C. against 0.001M Na-acetate pH 4.4. This dialysate was adjusted to pH 9.0-9.6 by adding 25 μl of 0.1M carbonate. Directly hereafter 1 mg abp (Pierce protein assay) was added into the dialysate. The mixture was gently shaken for 2 hours at room temperature. Thereafter 150 μl of 4 mg Na-borohydride/ml d.i.-water was added to the mixture, this was incubated for 2 hours at 4° C.
# 40 mg of 7ACA was added to 4 ml of 50 mM Hepes (pH 7.5) solution. After dissolving the pH was adjusted to pH 7.0 with 1N NaOH. Hereafter 20 mg BSA and 40 mg Bis(sulfosuccinicmidyl)suberate (spacer) and an extra 2 ml of 50 mM Hepes solution was added. The mixture was gently shaken for 45 minutes at 20° C.
# 0.125 ml dialysate (7ACA-spacer-BSA conjugate) was added to 500 ml carbonate pH 9.6. 0.5 ml of this solution was added to the polystyrene star tubes (NUNC MAXISORB®). Tubes were covered and incubated overnight at 4° C. After incubation the β-lactam spacer protein conjugate dilution was removed from the tubes and 2 ml 0.05M phosphate+0.5% BSA+2% sucrose+0.1M glycine pH 7.2 was added to each tube. After 1 hour at 20° C. the tubes were emptied and dried for 48 hours at 22°-27° C. with less than 30% humidity. Dried tubes are stable for at least 1 year at 4° C.
# 0.2 ml of milk sample and 0,2 ml of a diluted abp-enzyme conjugate was added to an empty reaction ampoule. After incubation for 2 minutes at 64° C. the contents of the tube was transferred to the coated tube. After the second incubation of 2 minutes at 64° C. the contents of the coated tube was dumped into the sink and the tubes were washed three times with 50×diluted wash solution by filling the tubes, dumping the contents into the sink and removing residuals by tapping on absorbent paper. After the wash, 0.5 ml of TM-blue® colour-substrate was added into the tube. This incubation for 4 minutes at room temperature was stopped by adding 0.5 ml of stop solution (1.5% NaF). The colour development at 650 nm was compared with an antibiotic standard tested along with the sample.
# [2] = tested on: anti-gentamycin-rabbit antibody; assay: Antibiotic residue test for gentamycin in milk (sequential assay; antibody/HRPO-protein A conjugate, immobilized gentamycin-spacer-BSA); format: binding; conditions: for reader units expressed in %: measured at 650 nanometer
# Experimental: The gentamycin assay is in general developed with the same basics as the β-lactam-assay. We will therefore give in this example the same outline as the β-lactam assay of Example 1 with description of differences.
# A commercial anti-gentamycin-rabbit antibody is obtained from Biodesign International, Kennebunkport, Me., U.S.A. The anti-gentamycin-rabbit antiserum is absorbed to remove the bovine serum albumin (BSA) carrier antibodies. A solution containing 10 mg/ml sulfosuccinicmidylsuberate-BSA and 2 mg of unreacted BSA is mixed with the raw antiserum in the ratio of 10 to 1. This removes all detectable reactivity with BSA.
# Absorbed anti-gentamycin antiserum is reacted with horseradish peroxidase labelled Staphylococcus aureus protein A to form an antibiotic binding protein enzyme conjugate. An optimal ratio of antibody to protein A is determined by forming the assay with checkerboard titrations of the two components diluted in phosphate buffered saline containing 1% BSA.
# In this example gentamycin is used for conjugation to Bovine Serum Albumin (BSA). A spacer between gentamycin and the BSA is used to obtain the best affinity and specificity. The spacer is the same as used in Example 1.
# As described in the β-lactam test, the gentamycin-spacer-protein conjugate is coated to a solid phase.
# The same test method as described in Example 1 for the β-lactam test can be used for the gentamycin test. However, this test uses all incubations at a temperature of 20° C.
compound,measurement,setting,value
CC(=O)OCC1=C(C(=O)O)N2C(=O)[C@@H](NC(=O)CSc3ccncc3)[C@H]2SC1 [Cephapirin],sensitivity ppb,[1],5 ppb
CO/N=C(\C(=O)N[C@@H]1C(=O)N2C(C(=O)O)=C(CSC(=O)c3ccco3)CS[C@H]12)c1csc(N)n1 [Ceftiofur],sensitivity ppb,[1],5 ppb
"CC1(C)S[C@@H]2[C@H](NC(=O)Cc3ccccc3)C(=O)N2[C@H]1C(=O)O [Pen. G, benzylpenicillin]",reader units expressed in %,"[1]; 1.25 ppb Pen. G present in sample, milk",96%
same,reader units expressed in %,"[1]; 2 ppb Pen. G present in sample, milk",69%
same,reader units expressed in %,"[1]; 3 ppb Pen. G present in sample, milk",65%
same,reader units expressed in %,"[1]; 4 ppb Pen. G present in sample, milk",51%
same,reader units expressed in %,"[1]; 5 ppb Pen. G present in sample, milk",47%
same,reader units expressed in %,"[1]; 10 ppb Pen. G present in sample, milk",32%
same,lowest detectable benzylpenicillin residue (test sensitivity),"[1]; milk, total incubation time 8 minutes (test time not exceeding about 12 minutes)",5 ppb
CC1(C)S[C@@H]2[C@H](NC(=O)[C@H](N)c3ccccc3)C(=O)N2[C@H]1C(=O)O [Ampicillin],sensitivity ppb,[1],10 ppb
gentamycin [gentamycine],reader units expressed in %,[2]; 2.5 ppb gentamycine present in sample,55%
same,reader units expressed in %,[2]; 5 ppb gentamycine present in sample,39%
same,reader units expressed in %,[2]; 10 ppb gentamycine present in sample,31%
same,reader units expressed in %,[2]; 20 ppb gentamycine present in sample,23%
same,reader units expressed in %,[2]; 30 ppb gentamycine present in sample,20%
same,reader units expressed in %,[2]; 36 ppb gentamycine present in sample,18%
same,"detectable gentamycin residue, can be lowered to (referred to Table III)","[2]; milk, all incubations at 20° C.",2.5 ppb
same,lowest detectable gentamycin residue,"[2]; milk, total incubation time 8 minutes, all incubations at 20° C.",30 ppb
CC1(C)S[C@@H]2[C@H](NC(=O)[C@H](N)c3ccc(O)cc3)C(=O)N2[C@H]1C(=O)O [Amoxicillin],sensitivity ppb,[1],5 ppb
